Measured values taken from patent publication US20050008639A1, “Methods of modulating homing of T cell by interruption of chemokine/chemokine receptor signaling” (priority 2003, published 2005).
Entries after “also recorded” stand apart in the source; their conditions may differ.

Key:
[1] = system: islet cells / aortal endothelial cells; assay: Chromium release cytotoxicity assay with IS-CD8+ effector cells; format: cell-based, mouse; details: for killing of endothelial cells isolated from NOD aorta by IS-CD8+ cells: 0.1 μM exogenous peptide
Protocol: Chromium release cytotoxicity assay—Pancreatic islets or monolayers of cultured aortal endothelial cells were dispersed into single-cell suspension by incubation in cell-dissociation buffer (Sigma), labeled with 100 μCi of Na2^51CrO4 (ICN Pharmaceuticals, Costa Mesa, Calif.) in 200 μl of complete Click's medium containing 5% FCS for 2 h at 37° C., washed three times, and co-cultured for 8-12 hours in 96-well plates (10^4 targets per well in 200 μl of Click's medium with 5% FCS) with effector IS CD8^+ cells at different effector-to-target ratios with different concentrations of InsB^15-23 peptide. To confirm the cytotoxic potential of IS-CD8^+ cells, labeled P815 mastocytoma (H2^d)cells were loaded with different concentrations of InsB^15-23 peptide and used as targets in the 4 hrs cytotoxicity assay. Specific cytotoxicity was based on the measurement of ^51Cr release in 100 μl aliquots of cell-free supernatant using a gamma-counter (Wallac, Turku, Finland) and calculated using the formula: Specific Cytotoxicity (%)=[(Experimental Release−Spontaneous Release)/(Maximum Release−Spontaneous Release)]×100%.

[2] = system: IS-CD8^+ cells adhesion to aortal endothelium from NOD mice; assay: Parallel plate flow chamber adhesion assay under shear stress; format: cell-based, mouse
Protocol: Primary vascular endothelium cell culture—Isolation and culture of vascular endothelium from mouse aorta was performed as described (16). Briefly, neutralized collagen extracellular matrix was aliquoted into 24-well plates, allowed to gel at 37° C. for 60 min, and equilibrated overnight with complete endothelial cell medium consisting of complete Click's medium with 20% FCS, and 50 μg/ml of Endothelial Cell Growth Supplement (Becton-Dickinson). The segments of thoracic aorta from adult NOD mice were placed endothelial-side down onto the collagen gel. Thirty-six hours later, 1 ml of complete endothelial cell medium was carefully added. After 3-5 days, the collagen gel was digested with a 0.3% collagenase H (Sigma) solution and the released cells were transferred to a T25 tissue culture flask. After reaching confluence, cells were detached by incubation with cell-dissociation buffer (Sigma), and split at a 1:3 ratio. Passage 2 to 5 cells were used for the experiments.
Parallel Plate Flow Chamber and Adhesion Assay—Aortal endothelial cells were plated on 35 mm Costar tissue culture dishes and allowed to reach confluence. The cells were then treated for 2 -3 hrs with 100 μM of InsB^15-23 or LLO^91-99 peptides in complete endothelial cell medium. In some experiments anti-K^d (SF 1-1.1) blocking mAbs were added for 20 min before the adhesion assay. The adhesion of IS-CD8^+ cells under shear stress was examined with a parallel plate flow chamber obtained from Glycotech (Rockville, Md.) following the manufacturer's instructions and as previously described (17-19). A flow chamber with a 5-mm-wide gasket was used. Negative flow pressure was generated and controlled with an automated syringe pump (Braintree Scientific, Quincy, Mass.). IS-CD8^+ cells were labeled with CFSE as described above, pretreated in some experiments with 100 ng/ml of mouse recombinant SLC (R&D Systems) in Click's medium for 30 min, and injected at a concentration of 3×10^6/ml into the flow chamber. After IS-CD8^+ cells were allowed to settle on the plate for the indicated length of time, the flow rate was increased stepwise every 10 s in increments of […] (˜4 dynes/cm^2 shear stress) to a maximum of 7.7 ml/min (corresponding to ˜24 dynes/cm^2). Lymphocyte adhesion was visualized with a Leica inverted fluorescent microscope and recorded using a Spot-RT digital camera (Diagnostic Instruments, Sterling Heights, Mich.). Images were converted into digital movies and analyzed using Metamorph software (Universal Imaging Corp., Downingtown, Pa.). Labeled IS-CD8^+ cells were counted in frames separated by equal time intervals from the start of the stress. Adhesion of cells in each frame was determined as a fraction (%) of the initial number of cells in the frame preceding the start of flow.

[3] = system: G-protein-coupled chemokine receptors; assay: Homing of PTx-treated DiI-labeled IS-CD8+ cells after injection into NOD mice; format: in vivo, mouse
Protocol: Fluorescent tracing and morphometric analysis—For trafficking studies, IS-CD8^+ and control T cells were incubated at 10^7 cells /ml for 30 min at 37° C. in the dark in complete medium containing 5% FCS and 0.0075 mg/ml of fluorescent dye didodecyltetramethylindocarbocyanine perchlorate (DiI) (Molecular Probes, Eugene, Oreg.), then washed 3 times with PBS. For analysis of short-term proliferation and adhesion studies IS-CD8^+ cells were stained in vitro with fluorescent dye carboxyfluorescein diacetate succinimidyl ester (CFSE) (Molecular Probes, Eugene, Oreg.) as described (12). 10^7 of labeled IS-CD8^+ cells were injected i.v. into irradiated (725 Rad, 24 h in advance) animals. Mice were sacrificed at time points indicated, and their spleens, pancreata, lymph nodes, peripheral blood and lungs were removed, lymphocytes were isolated as described (5), stained with allophycocyanin-conjugated anti-CD8 (53-6.7) antibody (BD Pharmingen), and subjected to FACS analysis. Alternatively, organs were fixed in 0.1 M periodate-lysine-paraformaldehyde phosphate buffer, sucrose-saturated, and freeze-molded in OCT compound (Sakura Finetek Inc., Torrance, Calif.). […] Cells were counted within areas relevant to a given islet (see FIG. 1 for representative image). […]

[4] = system: IS-CD8^+ cells; assay: PTx-treated IS-CD8+ cells cultured in vitro (viability, peptide response); format: cell-based, mouse; details: 24 hrs after treatment (not shown)
Protocol: Treatment with pertussis toxin (PTx)—For treatment with PTx, IS-CD8^+ cells were harvested, resuspended at 10^7 cells/ml in complete medium containing 100 ng/ml of PTx (Sigma) and incubated for 2 h at 37° C. The final 30 min of incubation were combined with DiI-labeling. Treated cells were washed and injected into irradiated hosts or cultured under standard conditions in vitro.

Molecule: LLO^91-99 peptide: control K^d-binding listeriolysin-derived peptide (GYKDGNEYI; UniProt P13128 91-99, looked up, fragment)
- killing of endothelial cells isolated from NOD aorta by IS-CD8+ cells [1]: no effect

Molecule: LYLVCGERG [InsB^15-23 peptide, synthetic insulin B chain peptide]
- killing of endothelial cells isolated from NOD aorta by IS-CD8+ cells [1]: killed
- lysis of islet β cells from H2k/d (C3D2) mice by IS-CD8+ cells ([1]; peptide added exogenously, 50:1 effector-to-target ratio): restored
- adhesion of the T cells to endothelial monolayers ([2]; monolayers pre-cultivated with 100 μM peptide, no SLC, FIG. 7A): increased adhesion
- contact time with endothelial cells prior to start of flow needed for adhesion significantly different from no-peptide control ([2]; peptide-treated monolayers, no SLC): 300 s

Molecule: pertussis toxin [PTx]
- distribution of PTx-treated IS-CD8+ cells in the spleen ([3]; NOD mice, vs untreated cells): avoided T cell zones
- homing of PTx-treated IS-CD8+ cells to the pancreatic islets ([3]; cells treated in vitro with 100 ng/ml PTx for 2 h, injected into NOD mice, 24 hrs after injection): abolishes; also recorded: practically absent from the islets
- response of PTx-treated IS-CD8+ cells to InsB15-23 peptide stimulation [4]: responded normally
- viability of IS-CD8+ cells treated with PTx [4]: did not lose their viability

B1: SLC: mouse recombinant SLC (R&D Systems), chemokine CCL21 (protein, UniProt P84444 24-133, looked up)
C-C motif chemokine 21a: SDGGGQDCCLKYSQKKIPYSIVRGYRKQEPSLGCPIPAILFSPRKHSKPELCANPEEGWVQNLMRRLDQPPAPGKQSPGCRKNRGTSKSGKKGKGSKGCKRTEQTQPSRG
- time necessary for adhesion ([2]; T cells pre-treated with 100 ng/ml SLC, endothelium with InsB15-23 peptide): 90 s
- baseline adhesion in the absence of specific peptide ([2]; T cells pre-treated with SLC): increased
- fraction of adherent cells ([2]; T cells pre-treated with SLC vs not exposed to SLC): larger
